The values that follow come from patent US20090124644A1, “HIV INHIBITING 2-(4-CYANOPHENYLAMINO) PYRIMIDINE DERIVATIVES” (priority 2005, published 2009).

Holding throughout (format): cell-based
Assay [1] has as its system Strain IIIB, wild type HIV-LAI strain. Kind of assay: Antiviral spectrum, cellular assay, strain IIIB. Conditions: Human immunodeficiency virus 1. As to the method:
(§1) Because of the increasing emergence of drug resistant HIV strains, the present compounds were tested for their potency against clinically isolated HIV strains harboring several mutations. These mutations are associated with resistance to reverse transcriptase inhibitors and result in viruses that show various degrees of phenotypic cross-resistance to the currently commercially available drugs such as for instance AZT and delavirdine.
(§2) The antiviral activity of the compound of the present invention has been evaluated in the presence of wild type HIV and HIV mutants bearing mutations at the reverse transcriptase gene. The activity of the compounds is evaluated using a cellular assay and the residual activity is expressed in pEC50 values. The columns IIIB and A-G in the table list the pEC50 values against various strains IIIB, A-G.
(§3) Strain IIIB is wild type HIV-LAI strain Strain A contains mutation Y181C in HIV reverse transcriptase, Strain B contains mutation V106A in HIV reverse transcriptase, Strain C contains mutation L100I in HIV reverse transcriptase, Strain D contains mutation Y188L in HIV reverse transcriptase, Strain E contains mutations L100I and K103N in HIV reverse transcriptase, Strain F contains mutations K103N and Y181C in HIV reverse transcriptase.

Assay [2] deals with Strain E, mutations L100I and K103N in HIV reverse transcriptase. The assay is described as follows: Antiviral spectrum, cellular assay, strain E. As to conditions: Human immunodeficiency virus 1, read-out: pEC50 E (converted). On the procedure: as §1, §2, §3
Assay [3] deals with Strain C, mutation L100I in HIV reverse transcriptase. The assay is described as follows: Antiviral spectrum, cellular assay, strain C. Conditions: Human immunodeficiency virus 1, read-out: pEC50 C (converted). On the procedure:
as §1, §2, §3

In assay [4] the test system is Strain F, mutations K103N and Y181C in HIV reverse transcriptase. Kind of assay: Antiviral spectrum, cellular assay, strain F. As to conditions: Human immunodeficiency virus 1, read-out: pEC50 F (converted). On the procedure: as §1, §2, §3
The test system of assay [5] is Strain B, mutation V106A in HIV reverse transcriptase. Kind of assay: Antiviral spectrum, cellular assay, strain B. As to conditions: Human immunodeficiency virus 1, read-out: pEC50 B (converted). On the procedure:
as §1, §2, §3

For assay [6], the system named is Strain D, mutation Y188L in HIV reverse transcriptase. The assay is described as follows: Antiviral spectrum, cellular assay, strain D. As to conditions: Human immunodeficiency virus 1, read-out: pEC50 D (converted). As to the method:
as §1, §2, §3

Assay [7] deals with Strain A, mutation Y181C in HIV reverse transcriptase. The assay is described as follows: Antiviral spectrum, cellular assay, strain A. Conditions: Human immunodeficiency virus 1, read-out: pEC50 A (converted). On the procedure:
as §1, §2, §3

The structures appear in SMILES notation.

On to `Cc1cc(C#N)cc(C)c1Nc1nc(Nc2ccc(C#N)cc2)nc(N)c1Br` [Compound 1], for which the EC50 is 0.631 nM in assay [1]; 3.98 nM in assay [2]; 0.794 nM in assay [3]; 3.98 nM in assay [4]; 0.398 nM in assay [5]; 0.794 nM in assay [6]. Further, the EC50 in assay [7] was 3.98 nM.

As for `N#Cc1ccc(Nc2nc(N)c(Br)c(Sc3c(C#N)cc(C#N)cc3C#N)n2)cc1` [Compound 2], the EC50 in assay [1] was 3.16 nM; in assay [2], 7.94 nM; in assay [3] it was 20 nM; in assay [4] it was 20 nM; in assay [5], 3.16 nM; in assay [6], 3.98 nM. Besides, the EC50 in assay [7] was 15.8 nM.

In the case of `Cc1cc(C#N)cc(C)c1[S+]([O-])c1nc(Nc2ccc(C#N)cc2)nc(N)c1Br` (stereo not drawn) [Compound 3], the EC50 was 5.01 nM in assay [1]; 6310 nM in assay [2]; 1580 nM in assay [3]; 251 nM in assay [4]; 7.94 nM in assay [5]; 39.8 nM in assay [6]. Further, the EC50 in assay [7] is 79.4 nM.
